From patent US20250151727A1, “(S)-ABSCISIC ACID FOR REDUCING FRUIT DROP” (Valent BioSciences LLC, priority 2023, published 2025)

Key:
Type in all cases: in vivo
[1] = test system: 'Midnight Valencia' sweet orange trees; test: Fruit drop, 'Midnight Valencia' sweet orange, Mpumalanga (Example 7); settings: for # Fruit per Tree / % Change in # Fruit per Tree: Excelero SL; for % Change in # Fruit per Tree: vs untreated control
Excerpt: Excelero™ SL was applied to mature ‘Midnight Valencia’ sweet orange trees in a commercial orchard near Mpumalanga, South Africa. The experiment consisted of a completely randomized design. S-ABA was applied at 20, 40 and 80 ppm in the form of Excelero™ SL and compared to an untreated control. All treatments were applied with Villa 51® at a rate of 6 milliliters per 100 liters of water. Treatments were applied 14, 21 and 28 days after 100% petal drop (“DAP”). See Results in Table 7, below.

[2] = test system: 'Nadorcott' mandarin trees; test: Fruit drop after foliar spray, 'Nadorcott' mandarin, Piketberg (Example 3); settings: for # Fruit per Tree / % Change in # Fruit per Tree: 28 days after 100% petal drop; for % Change in # Fruit per Tree: vs untreated control
Method: ProTone™ SG or Excelero™ SL was applied to mature ‘Nadorcott’ mandarin trees in a commercial orchard near Piketberg (33°04′46.3″S 18°50′04.7″E) in the Western Cape Province of South Africa. The experiment consisted of 5 trees per plot. S-ABA in the form of ProTone™ SG was applied as a foliar spray at 18.5, 37 and 75 ppm and at 37 ppm in the form of Excelero™ SL and compared to an untreated control at 2.4 liters per tree. All treatments were applied with Villa 51® at a rate of 6 milliliters per 100 liters of water. Treatments were applied 28 days after 100% petal drop on 8 Nov. 2022. See Results in Table 3, below.

'Orri' mandarin trees = test: Fruit drop, 'Orri' mandarin, Mpumalanga (Example 6); settings: for # Fruit per Tree / % Change in # Fruit per Tree: Excelero SL; for % Change in # Fruit per Tree: vs untreated control
Excerpt: Excelero™ SL was applied to mature ‘Orri’ mandarin trees in a commercial orchard near Mpumalanga, South Africa. The experiment consisted of a completely randomized design. S-ABA was applied at 20, 40 and 80 ppm in the form of Excelero™ SL and compared to an untreated control. All treatments were applied with Villa 51® at a rate of 6 milliliters per 100 liters of water. Treatments were applied 14, 21 and 28 days after 100% petal drop (“DAP”). See Results in Table 6, below.

[3] = 20, 40 and 80 ppm at each of 14, 21 and 28 days after 100% petal drop

Substance: (S)-abscisic acid [S-ABA]
- effect on fruit drop as compared to untreated control [1, 3]: reduced fruit drop
- # Fruit per Tree ([1]; 20 ppm @ 14 DAP): 239
- % Change in # Fruit per Tree ([1]; 20 ppm @ 14 DAP): 19%
- # Fruit per Tree ([1]; 20 ppm @ 21 DAP): 263
- % Change in # Fruit per Tree ([1]; 20 ppm @ 21 DAP): 31%
- # Fruit per Tree ([1]; 20 ppm @ 28 DAP): 245
- % Change in # Fruit per Tree ([1]; 20 ppm @ 28 DAP): 22%
- # Fruit per Tree ([1]; 40 ppm @ 14 DAP): 221
- % Change in # Fruit per Tree ([1]; 40 ppm @ 14 DAP): 10%
- # Fruit per Tree ([1]; 40 ppm @ 21 DAP): 246
- % Change in # Fruit per Tree ([1]; 40 ppm @ 21 DAP): 22%
- # Fruit per Tree ([1]; 40 ppm @ 28 DAP): 230
- % Change in # Fruit per Tree ([1]; 40 ppm @ 28 DAP): 14%
- # Fruit per Tree ([1]; 80 ppm @ 14 DAP): 255
- % Change in # Fruit per Tree ([1]; 80 ppm @ 14 DAP): 27%
- # Fruit per Tree ([1]; 80 ppm @ 21 DAP): 256
- % Change in # Fruit per Tree ([1]; 80 ppm @ 21 DAP): 27%
- # Fruit per Tree ([1]; 80 ppm @ 28 DAP): 285
- % Change in # Fruit per Tree ([1]; 80 ppm @ 28 DAP): 42%
- # Fruit per Tree ([2]; 18.5 ppm, ProTone SG): 793
- % Change in # Fruit per Tree ([2]; 18.5 ppm, ProTone SG): 3%
- effect on fruit drop as compared to untreated control ([2]; 37 and 75 ppm): reduced fruit drop
- # Fruit per Tree ([2]; 37 ppm, Excelero SL): 1010
- % Change in # Fruit per Tree ([2]; 37 ppm, Excelero SL): 32%
- # Fruit per Tree ([2]; 37 ppm, ProTone SG): 841
- % Change in # Fruit per Tree ([2]; 37 ppm, ProTone SG): 10%
- # Fruit per Tree ([2]; 75 ppm, ProTone SG): 909
- % Change in # Fruit per Tree ([2]; 75 ppm, ProTone SG): 18%
- effect on fruit drop as compared to untreated control ('Orri' mandarin trees; [3]): reduced fruit drop
- # Fruit per Tree ('Orri' mandarin trees; 20 ppm @ 14 DAP): 222
- % Change in # Fruit per Tree ('Orri' mandarin trees; 20 ppm @ 14 DAP): 17%
- # Fruit per Tree ('Orri' mandarin trees; 20 ppm @ 21 DAP): 257
- % Change in # Fruit per Tree ('Orri' mandarin trees; 20 ppm @ 21 DAP): 36%
- # Fruit per Tree ('Orri' mandarin trees; 20 ppm @ 28 DAP): 196
- % Change in # Fruit per Tree ('Orri' mandarin trees; 20 ppm @ 28 DAP): 4%
- # Fruit per Tree ('Orri' mandarin trees; 40 ppm @ 14 DAP): 222
- % Change in # Fruit per Tree ('Orri' mandarin trees; 40 ppm @ 14 DAP): 17%
- # Fruit per Tree ('Orri' mandarin trees; 40 ppm @ 21 DAP): 234
- % Change in # Fruit per Tree ('Orri' mandarin trees; 40 ppm @ 21 DAP): 24%
- # Fruit per Tree ('Orri' mandarin trees; 40 ppm @ 28 DAP): 250
- % Change in # Fruit per Tree ('Orri' mandarin trees; 40 ppm @ 28 DAP): 32%
- # Fruit per Tree ('Orri' mandarin trees; 80 ppm @ 14 DAP): 255
- % Change in # Fruit per Tree ('Orri' mandarin trees; 80 ppm @ 14 DAP): 35%
- # Fruit per Tree ('Orri' mandarin trees; 80 ppm @ 21 DAP): 213
- % Change in # Fruit per Tree ('Orri' mandarin trees; 80 ppm @ 21 DAP): 13%
- # Fruit per Tree ('Orri' mandarin trees; 80 ppm @ 28 DAP): 207
